Source: patent US5292892A, “Anti-bacterial compound and pharmaceutical compositions thereof” (Sankyo Company, Limited, priority 1991, dated 1994)
≈ marks a conversion by molar mass, not a printed value.

Tests used:
[1] = tested on: Mycoplasma synoviae WVU1853; test: Antimycoplasmal activity (MIC); assay type: cell-based; settings: Mycoplasmopsis synoviae, WVU1853, 120 h; Frey medium, 12% swine serum; 37° C., 5 days, slightly aerobic; 0.005 ml of 10^5 CFU/ml
Procedure: (§1) Following the procedure as described below, the activity of thiomarinol was assayed against various species of mycoplasma.
M. synoviae Frey medium [prepared as de-
scribed in Am. J. Vet. Res., --29,
(§2) 37° C., 5 days, slightly aerobic
(§3) (BBL gas pack method [cultivation
(§4) in disposable CO2 generator from
(§5) Becton Dickinson Microbiology
(§6) Systems, Cockeysville, MD 2103

[2] = tested on: Mycoplasma gallisepticum K-1; test: Antimycoplasmal activity (MIC); assay type: cell-based; settings: Mycoplasmoides gallisepticum, K1, 120 h; Chanock medium, 20% horse serum; 37° C., 5 days, slightly aerobic; 0.005 ml of 10^5 CFU/ml
Mycoplasma bovis Donetta = test: Antimycoplasmal activity (MIC); assay type: cell-based; settings: Mycoplasmopsis bovis, 120 h; Chanock medium, 20% horse serum; 37° C., 5 days, slightly aerobic; 0.005 ml of 10^5 CFU/ml
Solubility = assay type: physicochemical
[3] = tested on: Mycoplasma gallisepticum S-6; test: Antimycoplasmal activity (MIC); assay type: cell-based; settings: Mycoplasmoides gallisepticum, S6, 120 h; Chanock medium, 20% horse serum; 37° C., 5 days, slightly aerobic; 0.005 ml of 10^5 CFU/ml
[4] = tested on: Mycoplasma gallisepticum PG-31; test: Antimycoplasmal activity (MIC); assay type: cell-based; settings: Mycoplasmoides gallisepticum, PG31, 120 h; Chanock medium, 20% horse serum; 37° C., 5 days, slightly aerobic; 0.005 ml of 10^5 CFU/ml
[5] = tested on: Staphylococcus aureus 535 (MRSA); test: MIC, agar medium dilution method; assay type: cell-based; settings: nutrient agar
Procedure: (§7) The minimum inhibitory concentration (MIC) of thiomarinol, given as μg/ml, against gram-positive and gram-negative bacteria was determined by the agar medium dilution method, using a nutrient agar medium (Product of Eiken Chemical Co., Ltd.).

[6] = tested on: Staphylococcus aureus 56R; test: MIC, agar medium dilution method; assay type: cell-based; settings: nutrient agar
Procedure: as §7

Salmonella enteritidis = test: MIC, agar medium dilution method; assay type: cell-based; settings: Salmonella enterica, nutrient agar
Procedure: as §7

[7] = tested on: Klebsiella pneumoniae 806; test: MIC, agar medium dilution method; assay type: cell-based; settings: nutrient agar
Procedure: as §7

Enterobacter cloacae 963 = test: MIC, agar medium dilution method; assay type: cell-based; settings: nutrient agar
Procedure: as §7

[8] = tested on: Pseudomonas aeruginosa N07; test: MIC, agar medium dilution method; assay type: cell-based; settings: nutrient agar
Procedure: as §7

Morganella morganii 1510 = test: MIC, agar medium dilution method; assay type: cell-based; settings: nutrient agar
Procedure: as §7

[9] = tested on: Enterococcus faecalis 681; test: MIC, agar medium dilution method; assay type: cell-based; settings: nutrient agar
Procedure: as §7

[10] = tested on: Staphylococcus aureus 209P; test: MIC, agar medium dilution method; assay type: cell-based; settings: nutrient agar
Procedure: as §7

[11] = tested on: Pseudomonas aeruginosa 1001; test: MIC, agar medium dilution method; assay type: cell-based; settings: nutrient agar
Procedure: as §7

Escherichia coli 609 = test: MIC, agar medium dilution method; assay type: cell-based; settings: nutrient agar
Procedure: as §7

Proteus vulgaris 1420 = test: MIC, agar medium dilution method; assay type: cell-based; settings: nutrient agar
Procedure: as §7

Escherichia coli NHIJ = test: MIC, agar medium dilution method; assay type: cell-based; settings: nutrient agar
Procedure: as §7

Serratia marcescens 1184 = test: MIC, agar medium dilution method; assay type: cell-based; settings: nutrient agar
Procedure: as §7

[12] = tested on: Klebsiella pneumoniae 846 (R); test: MIC, agar medium dilution method; assay type: cell-based; settings: nutrient agar, (R) strain
Procedure: as §7

[13] = tested on: Mycoplasma hyosynoviae S-16; test: Antimycoplasmal activity (MIC); assay type: cell-based; settings: S16, 120 h, Mucin PPLO agar medium, 15% horse serum, 37° C., 5 days, slightly aerobic, 0.005 ml of 10^5 CFU/ml
Procedure: as §1
M. hyosynoviae Mucin PPLO* agar medium (15%
horse serum supplemented)
as §2, §3, §4, §5, §6
*PPLO ( -- Pleuro -- Pneumonia- -- Like
PPLO Broth without CV (Difco)
Mucin bacteriological (Difco)
Agar Noble (Difco) 12 g
25% Fresh yeast extract 50 ml

In the case of `C/C(=C\C(=O)OCCCCCCCC(=O)Nc1c2sscc-2[nH]c1=O)C(O)C1OCC(C/C=C/C(C)C(C)O)C(O)C1O` (single isomer, unassigned) [thiomarinol], the MIC [1] is reported as < 0.006 µg/mL, the MIC [2] is reported as 0.05 µg/mL (≈ 0.078 µM) and the MIC (Mycoplasma bovis Donetta) is reported as 0.0125 µg/mL (≈ 0.0195 µM). For the same compound, the Solubility (Solubility; alcohols (methanol, ethanol, propanol, butanol), dimethyl sulfoxide, dimethylformamide, chloroform, ethyl acetate, acetone, ethyl ether) was “Soluble”, the Solubility (Solubility; hexane) was “insoluble” and the Solubility (Solubility; water) was “insoluble”. For the same compound, the MIC [3] was 0.1 µg/mL (≈ 0.156 µM), the MIC [4] was 0.05 µg/mL (≈ 0.078 µM) and the MIC [5] was ≤ 0.01 µg/mL. The MIC [6] was ≤ 0.01 µg/mL, the MIC (Salmonella enteritidis) was 0.4 µg/mL (≈ 0.624 µM) and the MIC [7] was 0.8 µg/mL (≈ 1.25 µM). For the same compound, the MIC (Enterobacter cloacae 963) was 1.5 µg/mL (≈ 2.34 µM), the MIC [8] was 0.4 µg/mL (≈ 0.624 µM) and the MIC (Morganella morganii 1510) was 6.2 µg/mL (≈ 9.68 µM). For the same compound, the MIC [9] was 0.02 µg/mL (≈ 0.0312 µM), the MIC [10] was ≤ 0.01 µg/mL and the MIC [11] was 0.2 µg/mL (≈ 0.312 µM). It also gave an MIC (Escherichia coli 609) of 0.8 µg/mL (≈ 1.25 µM), an MIC (Proteus vulgaris 1420) of 0.05 µg/mL (≈ 0.078 µM) and an MIC (Escherichia coli NHIJ) of 0.8 µg/mL (≈ 1.25 µM). The MIC (Serratia marcescens 1184) was 3.1 µg/mL (≈ 4.84 µM), the MIC [12] was 0.2 µg/mL (≈ 0.312 µM) and the MIC [13] was 0.025 µg/mL (≈ 0.039 µM).
